Source: patent US12403104B2, “Compounds and methods of promoting myelination” (Case Western Reserve University, priority 2016, dated 2025)

How the values were obtained:
EBP = molecular target: T1, EBP (Mus musculus, UniProt P70245); assay: EBP enzymatic assay (GC/MS); assay type: biochemical; conditions: 10 μM, zymostenol 25 μM
T1 construct: active EBP was obtained from mouse microsomes; from tissue
T1 sequence (P70245 1-230): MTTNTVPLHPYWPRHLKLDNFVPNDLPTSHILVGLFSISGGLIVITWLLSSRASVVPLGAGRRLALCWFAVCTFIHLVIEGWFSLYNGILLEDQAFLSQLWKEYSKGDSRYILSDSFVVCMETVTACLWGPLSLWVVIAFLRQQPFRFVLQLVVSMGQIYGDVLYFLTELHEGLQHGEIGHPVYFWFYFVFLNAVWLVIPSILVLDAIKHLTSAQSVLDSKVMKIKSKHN

[1] = system: mouse epiblast stem cell-derived OPCs; assay: In vitro phenotypic screening of OPCs (MBP+ oligodendrocytes at 72 h); assay type: cell-based
Procedure: Then, 40,000 cells were seeded per well in differentiation medium and allowed to attach for 30 min before addition of drug. […] Sterols were added to cells as an ethanol solution (0.2% final ethanol concentration). […] Cells were incubated under standard conditions (37° C., 5% CO2) for 3 days and fixed with 4% paraformaldehyde (PFA) in phosphate buffered saline (PBS) for 20 min. Fixed plates were washed with PBS (200 μL per well) twice, permeabilized with 0.1% Triton X-100 and blocked with 10% donkey serum (v/v) in PBS for 40 min. […] Nuclei were visualized by DAPI staining (Sigma; 1 μg/ml).

OPCs = assay: GC/MS-based sterol profiling in OPCs; assay type: cell-based, mouse; conditions: GC/MS, 24 h treatment (siRNA 96 h)
mouse primary OPCs = assay: MBP+ oligodendrocyte formation from mouse primary OPCs; assay type: cell-based; conditions: 72 h
Procedure: To obtain mouse primary OPCs, whole brain was removed from post-natal day 2 pups anesthetized on ice. Brains were placed in cold DMEM/F12, and the cortices were isolated and the meninges were removed. The cortices were manually chopped and processed with the Tumor Dissociation Kit (Miltenyi) and incubated at 37° C. for 10 minutes. The cell suspension was filtered through a […] filter and centrifuged at 200×g for 4 minutes at room temperature. The cells were washed in DMEM/F12, re-centrifuged and plated in poly-Ornithine and Laminin-treated flasks containing DMEM/P12 supplemented with N2 Max, B27 (ThermoFisher), 20 ng/mL FGF, and 20 ng/mL PDGF. […] were passaged once prior to treatment. Media was changed every 48 hours.
Then, 40,000 cells were seeded per well in differentiation medium and allowed to attach for 30 min before addition of drug. For dose-response testing of all molecules except sterols, a 1000× compound stock in dimethyl sulphoxide (DMSO) was added to assay plates with 0.1 μL solid pin multi-blot replicators (V & P Scientific; VP 409), resulting in a final primary screening concentration of 1×. Sterols were added to cells as an ethanol solution (0.2% final ethanol concentration). […] Cells were incubated under standard conditions (37° C., 5% CO2) for 3 days and fixed with 4% paraformaldehyde (PFA) in phosphate buffered saline (PBS) for 20 min. […]

LPC-lesioned spinal cord [2] = assay: LPC focal demyelination of spinal cord, remyelination; assay type: in vivo, mouse; conditions: ifenprodil 10 mg per kg, tamoxifen 2 mg per kg, daily intraperitoneal, 8 days
[3] = system: human glioma cells (GBM528); assay: GC/MS sterol profiling in human glioma cell line; assay type: cell-based; conditions: 24 h
LPC-lesioned spinal cord [4] = conditions: earlier work; cited from earlier work

| Compound | inhibition of EBP enzymatic activity (EBP) | formation of MBP+ oligodendrocytes from OPCs [1] | sterol levels / sterol intermediate accumulation in OPCs (OPCs) | oligodendrocyte formation from mouse primary OPCs (mouse primary OPCs) | remyelination of LPC lesion (LPC-lesioned spinal cord [2]) | accumulation of sterol intermediates in human glioma cell line [3] | remyelination in mouse models of demyelination (previously established) (LPC-lesioned spinal cord [4]) |
| --- | --- | --- | --- | --- | --- | --- | --- |
| Cc1cc(C)c(CNC(=O)c2cc(-c3ccc(CN4CCOCC4)cc3)cc3c2cnn3C2CCCC2)c(=O)[nH]1 [EPZ005687] | directly inhibiting EBP enzymatic activity | enhanced oligodendrocyte formation | uniquely caused accumulation of zymosterol and zymostenol in OPCs | enhanced oligodendrocyte formation |  |  |  |
| CC(C(O)c1ccc(O)cc1)N1CCC(Cc2ccccc2)CC1 (stereo not drawn) [ifenprodil, Ifenprodil] |  |  |  |  | remyelination was widespread throughout the lesion | caused accumulation of the expected sterol intermediates |  |
| Clc1ccc(COC(Cn2ccnc2)c2ccc(Cl)cc2Cl)c(Cl)c1 (stereo not drawn) [miconazole, Miconazole] |  |  |  |  |  | caused accumulation of the expected sterol intermediates | enhances remyelination in mouse models of demyelination |
| CC/C(=C(\c1ccccc1)c1ccc(OCCN(C)C)cc1)c1ccccc1 [tamoxifen, Tamoxifen] | clear inhibition |  | induced accumulation of zymostenol and zymosterol and decreased basal sterol levels |  | remyelination was widespread throughout the lesion | caused accumulation of the expected sterol intermediates |  |
